{"source": "patent US6177592A", "about": "“Compounds” (priority 1997, dated 2001)", "key": {"tumor necrosis factor": {"system": "tumor necrosis factor", "assay": "TNF production from LPS-induced celiac macrophage", "format": "cell-based, mouse (CDF1)", "experimental": "(2) Paraffin oil (Cosmo Bio) (2 ml) was intraperitoneally administered to female CDF1 mice of eight weeks age to induce celiac macrophage (M.phi.). After one week from administration of paraffin oil, 4 ml of an RPMI-1640 medium (Gibco) was intraperitoneally infused, well massaged and recovered to give celiac cells.\nThe celiac cells were washed with an RPMI-1640 medium twice and suspended in an PPMI1640 medium containing 10% of fetal calf serum (FCS; High-Clone) to adjust the cell concentration to 1×10^6 cells/ml. The cell solution (1 ml) prepared as such was planted on a 24-well plate and incubated in a CO2 incubator at 37° C. for two hours. Non-adhesion cells contained in the supernatant liquid after incubation was removed and the adhesion cells were used as celiac M . […]\nAfter the incubation, 100 μl of 100 ng/ml LPS (manufactured by Sigma) was added and incubation was conducted for 24 hours more. After completion of the incubation, the supernatant liquid was recovered therefrom and the amount of TNF-a produced therein was determined using a commercially available ELISA kit (manufactured by Endogen)."}, "[1]": {"system": "carrageenan-induced pedal edema", "assay": "Carrageenan-induced pedal edema in Lewis rats", "format": "in vivo", "details": "Rattus norvegicus, 3 h; oral; three hours after carrageenan; read-out: dose with significant inhibition of pedal edema", "experimental": "Carrageenan-induced pedal edema models which were animal model of chronic articular rheumatism were prepared as follows using male Lewis rats [purchased from Seac-Yoshitomi when five weeks age (body weight: about 130 g) followed by subjecting to a preliminary breeding for one week at our end] and the test drugs were evaluated.\nTo the rats which were fasted since 18 hours before initiation of the experiment was orally administered with 10 ml/kg of GM which was prepared with distilled water (manufactured by Otsuka Pharmaceutical) to make 10 and 100 mg/ml.\nAfter 0.5 hour from administration of the test drug, 100 μl/rat of 1% suspension of carrageenan (manufactured by Wako) in a physiologically saline solution (manufactured by Otsuka Pharmaceutical) was injected to right paw to induce pedal edema. After three hours from the carrageenan injection, volume of right paw of the rat was measured by a pedal volume measuring device (manufactured by UGO BASILE). Incidentally, the measured value was expressed by calculating the increasing rate from the right paw volume of each rat measured before the carrageenan administration."}, "topoisomerase II": {"biological_target": "T1, topoisomerase II (Homo sapiens, UniProt P11388)", "T1 construct": "purchased TopoGEN", "T1 sequence (P11388 whole entry)": "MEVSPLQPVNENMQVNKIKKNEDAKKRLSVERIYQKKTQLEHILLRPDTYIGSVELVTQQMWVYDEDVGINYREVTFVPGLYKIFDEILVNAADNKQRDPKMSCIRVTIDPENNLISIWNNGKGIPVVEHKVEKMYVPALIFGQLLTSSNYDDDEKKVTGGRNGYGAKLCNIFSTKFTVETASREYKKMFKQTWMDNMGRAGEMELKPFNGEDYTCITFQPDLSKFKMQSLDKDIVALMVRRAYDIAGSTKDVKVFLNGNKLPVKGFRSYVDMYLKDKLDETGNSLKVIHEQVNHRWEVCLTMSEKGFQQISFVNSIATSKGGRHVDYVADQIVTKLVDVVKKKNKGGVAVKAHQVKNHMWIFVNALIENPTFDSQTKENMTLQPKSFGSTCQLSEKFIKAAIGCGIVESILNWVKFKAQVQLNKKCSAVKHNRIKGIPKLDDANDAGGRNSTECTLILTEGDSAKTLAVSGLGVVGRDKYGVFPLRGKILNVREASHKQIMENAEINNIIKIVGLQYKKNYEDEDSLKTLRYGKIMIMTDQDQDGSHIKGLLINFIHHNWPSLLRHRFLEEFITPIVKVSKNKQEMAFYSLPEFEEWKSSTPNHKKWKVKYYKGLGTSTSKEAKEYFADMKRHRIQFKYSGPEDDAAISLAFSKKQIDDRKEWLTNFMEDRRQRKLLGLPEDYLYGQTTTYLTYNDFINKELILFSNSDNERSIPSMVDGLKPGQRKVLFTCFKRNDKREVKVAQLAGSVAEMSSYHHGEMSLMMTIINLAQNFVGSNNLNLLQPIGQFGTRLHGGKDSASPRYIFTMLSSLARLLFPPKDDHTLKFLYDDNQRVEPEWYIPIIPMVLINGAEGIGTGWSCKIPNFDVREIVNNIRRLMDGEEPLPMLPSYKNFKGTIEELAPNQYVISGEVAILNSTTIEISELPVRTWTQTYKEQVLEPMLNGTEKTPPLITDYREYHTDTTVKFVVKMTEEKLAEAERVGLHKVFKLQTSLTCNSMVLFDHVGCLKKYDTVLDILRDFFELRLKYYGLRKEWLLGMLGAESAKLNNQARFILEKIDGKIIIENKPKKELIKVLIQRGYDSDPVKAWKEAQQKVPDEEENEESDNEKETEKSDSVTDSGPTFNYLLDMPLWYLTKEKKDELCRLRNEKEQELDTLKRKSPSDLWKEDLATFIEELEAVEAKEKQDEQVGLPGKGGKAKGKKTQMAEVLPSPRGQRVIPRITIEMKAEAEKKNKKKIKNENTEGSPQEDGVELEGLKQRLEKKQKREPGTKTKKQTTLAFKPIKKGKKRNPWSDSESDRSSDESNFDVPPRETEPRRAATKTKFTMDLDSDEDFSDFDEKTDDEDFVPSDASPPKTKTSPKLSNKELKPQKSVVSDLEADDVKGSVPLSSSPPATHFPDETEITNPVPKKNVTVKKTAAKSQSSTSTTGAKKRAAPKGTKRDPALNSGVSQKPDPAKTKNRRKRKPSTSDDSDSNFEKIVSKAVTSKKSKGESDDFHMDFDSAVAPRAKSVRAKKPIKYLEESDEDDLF", "assay": "Topoisomerase II inhibition (pBR322 relaxation)", "format": "biochemical", "parameters": "key to Inhibiting Activity: -: a complete change from a supercoiled type to a relaxation type; +: a change in a medium degree; ++: most of supercoiled type remained; +++: there was no decrease in a supercoiled type at all", "experimental": "(1) One μl of 0.25 μg/μl pBR322 DNA (manufactured by Takara Shuzo) was added to a mixture of 2 μl of topoisomerase II (manufactured by TopoGEN, 2 units/μl), 2 μl of a buffer with a ten-fold diluted concentration [0.5M Tris-HCl (pH 8.0), 1.2M KCl, 0.1M MgCl2, 5 mM adenosine triphosphate and 5 mM dithiothreitol], 2 μl of 0.1% bovine serum albumin (manufactured by Takara Shuzo), 11 μl of distilled water and 2 μl of distilled water (a control) or a sample (50, 100, 200, 500, 1000 or 2500 μM of GM) and made to react at 37° C. After the reaction for 30 minutes, the reaction was stopped by adding 2 μl aqueous solution of 1% sodium dodecylsulfate, 50% glycerol and 0.02% Bromophenol Blue.\nThe above reaction solution (20 μl) was applied to 1% agarose gel prepared from agarose L03 (manufactured by Takara Shuzo) and TAE buffer [40 mM Tris, 5 mM sodium acetate and 1 mM disodium ethylenediaminetetraacetate (EDTA); adjusted to pH 7.8 with acetic acid] and electrophoresis was conducted in the TAE buffer. After the electrophoresis, the gel was dipped in an aqueous solution of 1 μg/ml ethidium bromide and irradiated with ultraviolet ray to observe the electrophoretic pattern of DNA."}, "topoisomerase I": {"biological_target": "T2, topoisomerase I (Homo sapiens, UniProt P11387)", "T2 construct": "pBR322 supercoil relaxation assay", "T2 sequence (P11387 whole entry)": "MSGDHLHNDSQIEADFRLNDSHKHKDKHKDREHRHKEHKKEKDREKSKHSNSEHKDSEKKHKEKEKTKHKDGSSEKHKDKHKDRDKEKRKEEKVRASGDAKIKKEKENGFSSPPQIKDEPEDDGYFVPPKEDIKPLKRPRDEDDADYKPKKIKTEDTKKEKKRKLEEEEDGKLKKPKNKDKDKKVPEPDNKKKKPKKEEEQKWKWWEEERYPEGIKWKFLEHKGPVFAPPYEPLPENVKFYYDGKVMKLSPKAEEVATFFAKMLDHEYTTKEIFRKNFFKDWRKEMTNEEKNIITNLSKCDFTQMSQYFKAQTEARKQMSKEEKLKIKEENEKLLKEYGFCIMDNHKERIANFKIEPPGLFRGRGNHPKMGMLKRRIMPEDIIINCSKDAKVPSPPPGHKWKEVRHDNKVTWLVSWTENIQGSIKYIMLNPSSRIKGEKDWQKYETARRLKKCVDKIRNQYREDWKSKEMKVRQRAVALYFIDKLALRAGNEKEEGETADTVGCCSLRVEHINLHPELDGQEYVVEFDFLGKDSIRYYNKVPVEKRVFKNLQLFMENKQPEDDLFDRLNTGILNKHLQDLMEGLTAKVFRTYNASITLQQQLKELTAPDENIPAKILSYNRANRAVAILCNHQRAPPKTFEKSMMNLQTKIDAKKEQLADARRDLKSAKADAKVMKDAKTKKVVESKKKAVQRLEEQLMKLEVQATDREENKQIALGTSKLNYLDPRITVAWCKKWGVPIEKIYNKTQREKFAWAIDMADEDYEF", "assay": "Topoisomerase I inhibition", "format": "biochemical", "details": "1 mM GM", "experimental": "(2) Activity of GM for inhibiting the topoisomerase I was measured by the same method as in Example 17-(1) except that topoisomerase I [manufacturedby TopoGEN, 0.01 unit/y 1] was used instead of topoisomerase II; and 100 mM Tris-HCl (pH 7.9), 10 mM EDTA, 1 mM spermidine and 50% glycerol were used as a buffer with a ten-fold diluted concentration. Incidentally, as a sample, GM was added to make the final concentration 1 mM."}, "[2]": {"system": "sensitivity reaction of a delayed type", "assay": "Delayed type hypersensitivity (ovine erythrocyte, pedal edema)", "format": "in vivo, mouse (C57BL/6)", "details": "30 and 300 mg/kg i.p., three days", "experimental": "C57BL/6 mice (female, five weeks age, body weight about 20 g) were purchased from Nippon SLC and used for the experiment after a preliminary breeding for one week at our end. Ovine erythrocyte (manufactured by Shimizu Jikken Zairyo) which is an antigen provoking the sensitivity reaction of a delayed type was washed three times with a physiological saline solution (manufactured by Otsuka Pharmaceutical) to make […] and 203 μl of it was intraperitoneally injected to mice to subject to an antigen sensitization.\nAfter five days from the sensitization, 40 μl of antigen which was prepared by the same manner was injected to right paw to induce an antigen whereby pedal edema was provoked. From the antigen-sensitized date, GM was intraperitoneally administered to mice (one group consisting of five mice) once daily at the dose of 30 mg/kg or 300 mg/kg for three days.\nAfter two days from the antigen induction, volume of right paw of the mice was measured by a measuring device for pedal edema (manufactured by Ugo Basile) and used as an index for the sensitivity reaction of a delayed type. The measured value was given by calculating the increasing rate from the right paw volume of the mice measured before the antigen induction."}}, "data": [{"smiles": "N[C@@H](CCC(=O)N[C@@H](CSC1C=C(O)C(=O)C1)C(=O)NCC(=O)O)C(=O)O", "note": "(stereo partly drawn) [GM, 2-hydroxy-4-glutathion-S-yl-2-cyclopenten-1-one]", "values": [{"measurement": "inhibition activity of TNF production (in words)", "setting": "tumor necrosis factor; Example 8", "result": "inhibition activity of the production of tumor necrosis factor"}, {"measurement": "minimal effective concentration", "setting": "tumor necrosis factor; Mus musculus, Macrophage, read-out: concentration which significantly inhibited TNF production, LPS-induced, 24 hours", "result": "≥ 10", "unit": "µM"}, {"measurement": "minimal effective dose", "setting": "[1]", "result": "≥ 100", "unit": "mg/kg"}, {"measurement": "concentration at which change of DNA to relaxation type was partially or completely inhibited", "setting": "topoisomerase II", "result": "≥ 10", "unit": "µM"}, {"measurement": "Inhibiting Activity", "setting": "topoisomerase II; 5 μM", "result": "-"}, {"measurement": "Inhibiting Activity", "setting": "topoisomerase II; 10 μM", "result": "+"}, {"measurement": "Inhibiting Activity", "setting": "topoisomerase II; 20 μM", "result": "++"}, {"measurement": "Inhibiting Activity", "setting": "topoisomerase II; 50 μM", "result": "++"}, {"measurement": "Inhibiting Activity", "setting": "topoisomerase II; 100 μM", "result": "+++"}, {"measurement": "Inhibiting Activity", "setting": "topoisomerase II; 250 μM", "result": "+++"}, {"measurement": "inhibition of topoisomerase I", "setting": "topoisomerase I", "result": "topoisomerase I was inhibited by 1 mM GM"}, {"measurement": "inhibiting action to a sensitivity reaction of a delayed type", "setting": "[2]", "result": "significant inhibiting action to a sensitivity reaction of a delayed type"}]}]}
